Test system: recent-onset RA patients
Assay: Adverse drug events during six months of methotrexate therapy, BeSt trial
Type: in vivo, human
Experimental: Toxicity was evaluated by counting each reported adverse drug event and its consequences for the patient and treatment. Adverse drug events were spontaneously reported by the patients, or were reported as a result of non-specific questioning on patients' well-being by the investigator, by physical examination or laboratory measurements during follow up. In case of adverse drug events, methotrexate was continued at the lowest tolerated dose, or if methotrexate was not tolerated at all, the DMARD therapy was adjusted according to the protocol. Of all reported adverse drug events, the following non-infectious adverse drug events were evaluated explicitly: gastrointestinal adverse drug events defined as patients' general well-being, nausea, vomiting, diarrhea, and constipation; liver adverse drug events defined as all cases of elevated functional liver enzymes resulting in methotrexate dose adjustment or discontinuation; pneumonitis; skin and mucosal disorders. Moreover, patients were evaluated for leucopenia (<4.10^9/L), ALAT 3 times upper limit of normal (>135 U/L) and for alkaline phosphatase (AF) 3 times the upper limit of normal (>360 U/L).
For toxicity analysis, all patients who altered therapy from methotrexate before six months of follow-up were verified for adverse drug events after change of therapy and included in the analysis. The analyses of laboratory measurements were performed for completers only. The toxicity regression analysis was tested for the following confounders: weight, creatinine clearance, methotrexate dosage group (15 or 25 mg) and use of alcohol.

[1] = all patients with toxicity data (n=200)

CN(Cc1cnc2nc(N)nc(N)c2n1)c1ccc(C(=O)N[C@@H](CCC(=O)O)C(=O)O)cc1 [methotrexate]
Adverse drug events at six months, number of patients with event/patients (AMPD1 CC genotype): 42/146
Adverse drug events at six months, percentage of patients (AMPD1 CC genotype): (29%)
Adverse drug events at six months, number of patients with event/patients (AMPD1 CT genotype): 16/50
Adverse drug events at six months, percentage of patients (AMPD1 CT genotype): (32%)
Adverse drug events at six months, number of patients with event/patients (AMPD1 TT genotype): 1/3
Adverse drug events at six months, percentage of patients (AMPD1 TT genotype): (33%)
Adverse drug events at six months, number of patients with event/patients (ATIC CC genotype): 21/94
Adverse drug events at six months, percentage of patients (ATIC CC genotype): (22%)
Adverse drug events at six months, number of patients with event/patients (ATIC CG genotype): 33/91
Adverse drug events at six months, percentage of patients (ATIC CG genotype): (36%)
times more likely to experience any adverse drug event (ATIC G-allele carriers, six months, not significant after adjustment): 2 times
Adverse drug events at six months, number of patients with event/patients (ATIC GG genotype): 6/15
Adverse drug events at six months, percentage of patients (ATIC GG genotype): (40%)
Adverse drug events at six months, number of patients with event/patients (ITPA CA genotype): 8/30
Adverse drug events at six months, percentage of patients (ITPA CA genotype): (27%)
Adverse drug events at six months, number of patients with event/patients (ITPA CC genotype): 51/169
Adverse drug events at six months, percentage of patients (ITPA CC genotype): (30%)
Gastrointestinal (general wellbeing, nausea, vomiting, diarrhoea, constipation), frequency at 6 months, number of patients [1]: 26
Gastrointestinal (general wellbeing, nausea, vomiting, diarrhoea, constipation), frequency at 6 months, percentage [1]: (13.0%)
Hepatic elevated liver enzymes, frequency at 6 months, number of patients [1]: 16
Hepatic elevated liver enzymes, frequency at 6 months, percentage [1]: (8%)
Overall adverse drug events, total population, frequency at 6 months, number of patients [1]: 60
Overall adverse drug events, total population, frequency at 6 months, percentage [1]: (30%)
Pneumonitis, frequency at 6 months, number of patients [1]: 0
Pneumonitis, frequency at 6 months, percentage [1]: (0%)
Skin and mucosa disorders, frequency at 6 months, number of patients [1]: 17
Skin and mucosa disorders, frequency at 6 months, percentage [1]: (8.5%)
study population that experienced at least one adverse drug event during six months of treatment (n=60 of 200): Thirty
odds ratio for adverse drug events (non-responders carrying the ATIC G-allele compared to all ATIC G-allele carriers, 95% CI 1.1,7.5): 2.8
odds ratio for adverse drug events (patients with good clinical response at six months compared to non-responders, 95% CI 0.22, 0.91): 0.45

— patent US7713696B2, “Genetic markers for prognosis of antifolate treatment efficacy” (Academisch Zeikenhuis Leiden H.O.D.N. Lumc, priority 2006, dated 2010)
